In patent US8017350B2, “Glimepiride- and insulin-induced glycosylphosphatidylinositol-specific phospholipase C regulation” (Sanofi-Aventis Deutschland GmbH, priority 2004, dated 2011):

Columns and labels:
[1] = tested on: pp59Lyn and IRS-1 in rat adipocytes; assay: Tyrosine phosphorylation of pp59Lyn and IRS-1; assay type: cell-based; conditions: GPI-2350; IRS-1 tyrosine phosphorylation and glucose transport
Protocol: Polypeptides separated by SDS-PAGE were transferred to polyvinylidene difluoride membranes using the semidry procedure as described in “Müller, G. et al., (2001) Mol. Cell. Biol. 21: 4553-4567”. Washed membranes were incubated with anti-caveolin-1 (1:2000), anti-pp59^Lyn (1:1250), anti-aP (1:500), anti-5′-Nuc (1:750) and anti-IRS-1 (1:2000) antibodies for 4 h at 15° C. Washed membranes were incubated with horseradish peroxidase-coupled secondary goat anti-mouse (1:2000) or goat anti-rabbit IgG (1:4000) antibodies. Labeled proteins were visualized by enhanced chemiluminescence.
FIG. 7: Effect of GPI-2350 on the glimepiride/insulin-induced activation of signaling proteins. Isolated rat adipocytes were treated (5 min, 37° C.) without or with GPI-2350 (Panels A, 50 μM; Panels B, increasing conc.) and then incubated (120 min, 37° C.) in the absence or presence of insulin (10 nM) or glimepiride (20 μM). IRS-1 and pp59^Lyn were immunoprecipitated from the defatted postnuclear infranatant (see Materials and Methods) and solubilized combined hc/lcDIGs, respectively, and then immunoblotted for phosphotyrosine. […]

[2] = target: T1, Lipoprotein lipase (LPL) from bovine milk (Bos taurus, UniProt P11151); assay: lipoprotein lipase assay (radiolabeled triolein emulsion); assay type: biochemical; conditions: 50 μM
T1 construct: purchased SigmalAldrich (Deisenhofen, Germany); host or cells: bovine milk
Protocol: Hormone-sensitive lipase (HSL) and lipoprotein lipase (LPL) were measured using a radiolabeled triolein droplet emulsion as described in “Vertesy et al., (2002) Journal Antibiotics 55:480-494”. Pancreatic lipase (PL) was determined by incubation of 0.25 mmol tributyrin in 2 ml of 5 mM Tris/HCl (pH 6.5), 6 mM sodium taurodeoxycholate, 150 mM NaCl, 1 mM CaCl2 with porcine PL and colipase in the same buffer using a recording pH stat (stirring at 1000 rpm at 25° C.) with the pH adjusted to 6.5. PC-PLC was assayed by incubation of 0.2 ml of 10 mM dipalmitoyllecithin, 0.1 ml of 10 mM SDC and 0.1 ml of 0.03 M CaCl2 with bacterial PC-PLC (in 50 mM Tris/HCl, pH 7.5, 0.1% BSA) for 10 min at 37° C. The reaction was terminated by addition of 0.1 ml of 50% TCA and subsequently of 2.5 ml of […]. After centrifugation (1500×g, 15 min), 0.2-ml portions of the upper methanol/water phase (˜1.33 ml) were removed, supplemented with 0.5 ml of 60% HClO4, then heated at 170° C. for 1 h and finally analyzed for inorganic phosphate. Mammalian PI-PLC was measured by incubation of 0.1 ml of 10 mM PI, 0.1 ml of 0.8% sodium deoxycholate, 0.1% BSA, 0.2 ml of 100 mM sodium borate (pH 7.5) and rat liver PI-PLC for 20 min at 37° C. The reaction was terminated and further processed as described for the PC-PLC. […] Radioactive phosphatidic acid was detected by phosphorimaging. […]

T1 sequence (P11151 29-478): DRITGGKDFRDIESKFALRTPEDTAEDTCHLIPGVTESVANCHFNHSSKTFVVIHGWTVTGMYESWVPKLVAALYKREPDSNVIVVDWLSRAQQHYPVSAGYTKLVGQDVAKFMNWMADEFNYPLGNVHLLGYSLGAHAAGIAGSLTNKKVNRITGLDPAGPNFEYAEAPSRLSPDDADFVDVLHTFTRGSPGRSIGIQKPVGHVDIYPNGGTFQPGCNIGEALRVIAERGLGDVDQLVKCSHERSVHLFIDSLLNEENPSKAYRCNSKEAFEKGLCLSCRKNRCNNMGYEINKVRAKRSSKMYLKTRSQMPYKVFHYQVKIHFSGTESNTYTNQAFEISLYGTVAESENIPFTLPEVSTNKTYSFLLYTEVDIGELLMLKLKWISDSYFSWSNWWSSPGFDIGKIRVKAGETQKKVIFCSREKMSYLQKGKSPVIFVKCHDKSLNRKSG

CCCCCCCCCCCCP1(=O)O[C@@H]2[C@H](O)[C@@H](O)[C@H](O)[C@@H](O)[C@@H]2O1 (some centres unmarked) [GPI-2350, myo-inositol-1,2-cyclo-dodecylphosphonic acid]
effect on stimulation by other insulin-mimetic stimuli [1]: neither IRS-1 tyrosine phosphorylation nor glucose transport (Tab. 3) by these stimuli was affected significantly | effect on LPL [2]: not significantly affected
